Experimental data reported in patent publication US20250214991A1 (Oncopia Therapeutics, Inc. d/b/a/ SK Life Science Labs, priority 2022, published 2025).
Where a name gives a salt, the structure may show the parent alone. Read-outs that look alike come from different tables or passages of the source.

Tests used:
Assay type in all cases: cell-based
[1] = target: T1, IKZF2 (Homo sapiens (Human), UniProt Q96SW2+Q9UKS7); test: In vitro IKZF2 FACS Assay in Jurkat cells; settings: 24 hrs; for DC50: half maximal degradation concentration; for Dmax: maximal degradation percentage
Experimental: In vitro IKZF2 FACS Assay
DC50, A: <1 nM; B: 1-10 nM; C: 10-100 nM; D: 100-1000 nM; E: >1000 nM. Dmax, A: >80%; B: 60-80%; C: 40-60%; D: 20-40%; E: <20%.

[2] = target: T1, IKZF2; test: In vitro IKZF2 HiBit Assay (HEK293T Flp-in-HiBiT cells)
In short: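 HEK293T Flp-in cells carrying an endogenous N-terminal HiBiT tag on IKZF2 were exposed to compound for 6 h at 0.1% DMSO. The dilution series was 11 doses at 3-fold, diluted from 1 mM. Nano-Glo HiBiT lytic luminescence, normalized to DMSO, gave DC50 for 50% degradation and Dmax across the concentration range, both reported in letter bins.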

[3] = target: IKZF1 (Homo sapiens (Human), UniProt Q13422+Q96SW2); test: In vitro IKZF1 HiBit Assay (HEK293T Flp-in-HiBiT-IKZF1 stable cell line)
In short: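 HEK293T Flp-in cells carrying N-terminal HiBiT-tagged IKZF1 were exposed to compound (0.1% DMSO) for 6 h at 3000 cells/well. HiBiT luminescence was read after lytic LgBiT detection. DC50 and Dmax were taken from DMSO-normalized dose-response curves.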

[4] = HEK293T Flp-in-HiBiT cells, 6 hrs incubation; read-out: IKZF2 HiBit DC50
[5] = HEK-293T; HEK293T Flp-in-HiBiT cells, 6 hrs incubation; read-out: IKZF2 HiBit Dmax (%)
[6] = HEK293T Flp-in-HiBiT-IKZF1 stable cell line, 6 hrs incubation; read-out: IKZF1 HiBit DC50
[7] = HEK-293T; HEK293T Flp-in-HiBiT-IKZF1 stable cell line, 6 hrs incubation; read-out: IKZF1 HiBit Dmax (%)

Sequence of IKZF1 (Q13422 whole entry): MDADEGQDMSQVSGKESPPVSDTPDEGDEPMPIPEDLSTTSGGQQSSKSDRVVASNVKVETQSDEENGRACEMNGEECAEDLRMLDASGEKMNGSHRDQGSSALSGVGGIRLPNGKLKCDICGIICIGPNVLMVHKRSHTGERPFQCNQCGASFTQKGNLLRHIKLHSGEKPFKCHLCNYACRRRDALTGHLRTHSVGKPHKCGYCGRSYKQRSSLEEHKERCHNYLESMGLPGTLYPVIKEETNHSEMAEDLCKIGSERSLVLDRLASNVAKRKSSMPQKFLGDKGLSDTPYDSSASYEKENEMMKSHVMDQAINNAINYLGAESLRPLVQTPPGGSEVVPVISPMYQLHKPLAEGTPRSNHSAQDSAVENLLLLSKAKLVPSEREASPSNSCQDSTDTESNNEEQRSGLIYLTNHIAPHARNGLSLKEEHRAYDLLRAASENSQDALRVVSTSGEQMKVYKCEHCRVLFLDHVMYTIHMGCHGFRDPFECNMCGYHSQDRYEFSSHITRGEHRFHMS
Sequence of IKZF1 (Q96SW2 whole entry): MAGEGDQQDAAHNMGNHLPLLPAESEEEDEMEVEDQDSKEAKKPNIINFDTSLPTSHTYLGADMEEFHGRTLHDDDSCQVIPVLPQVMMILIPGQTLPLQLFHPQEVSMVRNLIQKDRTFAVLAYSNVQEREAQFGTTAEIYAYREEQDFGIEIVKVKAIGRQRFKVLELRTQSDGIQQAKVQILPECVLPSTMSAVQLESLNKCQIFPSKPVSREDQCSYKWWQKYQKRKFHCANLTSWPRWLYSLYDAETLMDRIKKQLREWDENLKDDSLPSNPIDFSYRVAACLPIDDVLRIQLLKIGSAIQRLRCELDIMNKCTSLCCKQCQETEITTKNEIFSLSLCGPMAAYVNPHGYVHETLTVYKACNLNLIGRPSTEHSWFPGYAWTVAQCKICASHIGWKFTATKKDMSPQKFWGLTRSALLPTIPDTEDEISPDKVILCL
Sequence of IKZF1 (Q16531 2-1140 partner): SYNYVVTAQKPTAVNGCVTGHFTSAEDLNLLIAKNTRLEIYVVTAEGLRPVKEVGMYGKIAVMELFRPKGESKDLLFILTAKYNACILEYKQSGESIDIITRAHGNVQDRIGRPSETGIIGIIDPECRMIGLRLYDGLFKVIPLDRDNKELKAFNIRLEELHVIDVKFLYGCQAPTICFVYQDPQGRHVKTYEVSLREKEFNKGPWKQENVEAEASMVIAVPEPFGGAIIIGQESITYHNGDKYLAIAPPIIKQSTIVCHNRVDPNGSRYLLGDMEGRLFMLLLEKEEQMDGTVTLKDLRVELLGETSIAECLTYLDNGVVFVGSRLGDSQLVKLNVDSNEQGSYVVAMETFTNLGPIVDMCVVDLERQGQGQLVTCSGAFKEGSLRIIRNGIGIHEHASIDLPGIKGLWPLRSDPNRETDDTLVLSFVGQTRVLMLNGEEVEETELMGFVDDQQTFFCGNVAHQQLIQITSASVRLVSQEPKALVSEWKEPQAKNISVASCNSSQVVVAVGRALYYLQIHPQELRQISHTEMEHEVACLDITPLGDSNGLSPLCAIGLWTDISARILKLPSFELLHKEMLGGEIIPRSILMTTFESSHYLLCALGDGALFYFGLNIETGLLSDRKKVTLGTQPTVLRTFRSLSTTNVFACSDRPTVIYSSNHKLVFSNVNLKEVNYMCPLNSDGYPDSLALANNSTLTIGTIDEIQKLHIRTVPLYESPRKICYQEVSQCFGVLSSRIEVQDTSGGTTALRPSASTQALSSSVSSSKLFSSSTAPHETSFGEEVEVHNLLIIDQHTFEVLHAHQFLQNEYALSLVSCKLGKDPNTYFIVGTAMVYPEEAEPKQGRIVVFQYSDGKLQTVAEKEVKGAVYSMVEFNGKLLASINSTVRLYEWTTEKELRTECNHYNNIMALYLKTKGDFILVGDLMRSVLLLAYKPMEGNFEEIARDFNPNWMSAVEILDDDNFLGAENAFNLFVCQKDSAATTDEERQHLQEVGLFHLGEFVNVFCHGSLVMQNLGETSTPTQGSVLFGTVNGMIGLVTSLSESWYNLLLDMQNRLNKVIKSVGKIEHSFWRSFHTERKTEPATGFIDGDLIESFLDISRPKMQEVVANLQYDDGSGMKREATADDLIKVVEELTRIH
T1 sequence (Q9UKS7 whole entry): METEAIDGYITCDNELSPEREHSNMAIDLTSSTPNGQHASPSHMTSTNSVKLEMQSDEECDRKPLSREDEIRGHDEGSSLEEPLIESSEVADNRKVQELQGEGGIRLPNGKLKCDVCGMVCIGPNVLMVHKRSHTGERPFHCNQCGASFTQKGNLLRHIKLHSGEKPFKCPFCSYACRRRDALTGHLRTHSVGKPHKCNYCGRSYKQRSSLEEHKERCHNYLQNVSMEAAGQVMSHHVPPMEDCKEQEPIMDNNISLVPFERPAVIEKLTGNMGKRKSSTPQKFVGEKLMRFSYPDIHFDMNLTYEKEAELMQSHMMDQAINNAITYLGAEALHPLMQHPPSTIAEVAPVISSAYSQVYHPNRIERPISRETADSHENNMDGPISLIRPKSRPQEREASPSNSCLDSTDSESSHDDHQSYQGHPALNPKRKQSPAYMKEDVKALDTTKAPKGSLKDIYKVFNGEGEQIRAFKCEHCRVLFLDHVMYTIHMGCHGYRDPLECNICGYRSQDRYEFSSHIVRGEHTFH
T1 sequence (Q96SW2 whole entry): as the sequence (Q96SW2 whole entry) above
T1 sequence (Q16531 2-1140 partner): as the sequence (Q16531 2-1140 partner) above

| Compound | DC50 [1] | Dmax [1] | DC50 [2, 4] | Dmax [2, 5] | DC50 [3, 6] | Dmax [3, 7] | Dmax ([2]; HEK-293T, read-out: IKZF2 HiBit Dmax (%)) | DC50 ([2]; read-out: IKZF2 HiBit DC50; HEK293T Flp-in-HiBiT cells, 6 hrs incubation) | Dmax ([3]; HEK-293T, read-out: IKZF1 HiBit Dmax (%)) | DC50 ([3]; read-out: IKZF1 HiBit DC50; HEK293T Flp-in-HiBiT-IKZF1 stable cell line, 6 hrs incubation) |
| --- | --- | --- | --- | --- | --- | --- | --- | --- | --- | --- |
| Cn1cc(-n2ccc3c(CN4CCCC4)cc(-c4ccc5c(c4)CN(C4CCC(=O)NC4=O)C5=O)nc32)cn1 (stereo not drawn) [Example 248, 3-(5-(1-(1-methyl-1H-pyrazol-4-yl)-4-(pyrrolidin-1-ylmethyl)-1H-pyrrolo[2,3-b]pyridin-6-yl)-1-oxoisoindolin-2-yl) piperidine-2,6-dione] | < 1 nM | > 80% | < 1 nM | > 80% | 100 to 1000 nM | 20 to 40% |  |  |  |  |
| O=C1CCC(N2Cc3cc(-c4cc(CN5CCCC5)c5nccc(OC(F)F)c5n4)ccc3C2=O)C(=O)N1 (stereo not drawn) [Example 249, 3-(5-(8-(difluoromethoxy)-4-(pyrrolidin-1-ylmethyl)-1,5-naphthyridin-2-yl)-1-oxoisoindolin-2-yl) piperidine-2,6-dione] | 1 to 10 nM | > 80% | 1 to 10 nM | > 80% | > 10000 nM | < 20% |  |  |  |  |
| COC[C@@H]1CCCN1Cc1cc(-c2ccc3c(c2)CN(C2CCC(=O)NC2=O)C3=O)nc2c1ccn2C1COC1 (stereo partly drawn) [Example 250, 3-(5-(4-(((S)-2-(methoxymethyl)pyrrolidin-1-yl)methyl)-1-(oxetan-3-yl)-1H-pyrrolo[2,3-b]pyridin-6-yl)-1-oxoisoindolin-2-yl) piperidine-2,6-dione] | 1 to 10 nM | 60 to 80% | 1 to 10 nM | 60 to 80% | > 10000 nM | < 20% |  |  |  |  |
| CC1(C)CCCN1Cc1cc(-c2ccc3c(c2)CN(C2CCC(=O)NC2=O)C3=O)nc2c1ccn2C1COC1 (stereo not drawn) [Example 254, 3-(5-(4-((2,2-dimethylpyrrolidin-1-yl)methyl)-1-(oxetan-3-yl)-1H-pyrrolo[2,3-b]pyridin-6-yl)-1-oxoisoindolin-2-yl) piperidine-2,6-dione] | 10 to 100 nM | 60 to 80% |  |  |  |  | 60 to 80% | 1 to 10 nM | < 20% | > 10000 nM |
| COC1CC(n2ccc3c(CN4CCCC4)cc(-c4ccc5c(c4)CN(C4CCC(=O)NC4=O)C5=O)nc32)C1 (stereo not drawn) [Example 255, 3-(5-(1-(3-methoxycyclobutyl)-4-(pyrrolidin-1-ylmethyl)-1H-pyrrolo[2,3-b]pyridin-6-yl)-1-oxoisoindolin-2-yl) piperidine-2,6-dione] | 1 to 10 nM | > 80% | 1 to 10 nM | > 80% | 10 to 100 nM | 20 to 40% |  |  |  |  |
| CN1CC(n2ccc3c(CN4CCCC4)cc(-c4ccc5c(c4F)CN(C4CCC(=O)NC4=O)C5=O)nc32)C1 (stereo not drawn) [Example 260, 3-(4-fluoro-5-(1-(1-methylazetidin-3-yl)-4-(pyrrolidin-1-ylmethyl)-1H-pyrrolo[2,3-b]pyridin-6-yl)-1-oxoisoindolin-2-yl) piperidine-2,6-dione] | 1 to 10 nM | > 80% | 1 to 10 nM | > 80% | 10 to 100 nM | 60 to 80% |  |  |  |  |
| CN1CC(n2ncc3c(CN4CCCC4)cc(-c4ccc5c(c4)CN(C4CCC(=O)NC4=O)C5=O)nc32)C1 (stereo not drawn) [Example 261, 3-(5-(1-(1-methylazetidin-3-yl)-4-(pyrrolidin-1-ylmethyl)-1H-pyrazolo[3,4-b]pyridin-6-yl)-1-oxoisoindolin-2-yl) piperidine-2,6-dione] | 1 to 10 nM | > 80% | 1 to 10 nM | > 80% | 10 to 100 nM | 60 to 80% |  |  |  |  |
| O=C1CCC(N2Cc3cc(-c4cc(CN5CCCCC56CC6)c5ccn(C6COC6)c5n4)ccc3C2=O)C(=O)N1 (stereo not drawn) [Example 264, 3-(5-(4-((4-azaspiro[2.5]octan-4-yl)methyl)-1-(oxetan-3-yl)-1H-pyrrolo[2,3-b]pyridin-6-yl)-1-oxoisoindolin-2-yl) piperidine-2,6-dione] | 10 to 100 nM | 40 to 60% | 1 to 10 nM | 60 to 80% | > 10000 nM | < 20% |  |  |  |  |
| Cn1ccc(-n2ccc3c(CN4CCCC4)cc(-c4ccc5c(c4)CN([C@H]4CCC(=O)NC4=O)C5=O)nc32)n1 [Example 265, (S)-3-(5-(1-(1-methyl-1H-pyrazol-3-yl)-4-(pyrrolidin-1-ylmethyl)-1H-pyrrolo[2,3-b]pyridin-6-yl)-1-oxoisoindolin-2-yl) piperidine-2,6-dione] | 1 to 10 nM | 60 to 80% | 1 to 10 nM | > 80% | > 10000 nM | < 20% |  |  |  |  |
| COC1CCN(Cc2cc(-c3ccc4c(c3F)CN(C3CCC(=O)NC3=O)C4=O)nc3c2ccn3C2CS(=O)(=O)C2)CC1 (stereo not drawn) [Example 266, 3-(5-(1-(1,1-dioxidothietan-3-yl)-4-((4-methoxypiperidin-1-yl)methyl)-1H-pyrrolo[2,3-b]pyridin-6-yl)-4-fluoro-1-oxoisoindolin-2-yl) piperidine-2,6-dione formate] | 1 to 10 nM | > 80% | 1 to 10 nM | > 80% | 10 to 100 nM | 40 to 60% |  |  |  |  |
| O=C1CCC(N2Cc3c(ccc(-c4cc(CN5CCC(F)CC5)c5ccn(C6CS(=O)(=O)C6)c5n4)c3F)C2=O)C(=O)N1 (stereo not drawn) [Example 268, 3-(5-(1-(1,1-dioxidothietan-3-yl)-4-((4-fluoropiperidin-1-yl)methyl)-1H-pyrrolo[2,3-b]pyridin-6-yl)-4-fluoro-1-oxoisoindolin-2-yl) piperidine-2,6-dione] | 1 to 10 nM | > 80% | < 1 nM | > 80% | 10 to 100 nM | 40 to 60% |  |  |  |  |
| O=C1CCC(N2Cc3c(ccc(-c4cc(CN5CC6COCC6C5)c5ccn(C6CS(=O)(=O)C6)c5n4)c3F)C2=O)C(=O)N1 (stereo not drawn) [Example 269, 3-(5-(1-(1,1-dioxidothietan-3-yl)-4-((tetrahydro-1H-furo[3,4-c]pyrrol-5 (3H)-yl)methyl)-1H-pyrrolo[2,3-b]pyridin-6-yl)-4-fluoro-1-oxoisoindolin-2-yl) piperidine-2,6-dione] | 1 to 10 nM | > 80% | 1 to 10 nM | > 80% | 10 to 100 nM | 20 to 40% |  |  |  |  |
| O=C1CCC(N2Cc3c(ccc(-c4nc5c(ccn5C5COC5)c(CN5CCCC5)c4Cl)c3F)C2=O)C(=O)N1 (stereo not drawn) [Example 270, 3-(5-(5-chloro-1-(oxetan-3-yl)-4-(pyrrolidin-1-ylmethyl)-1H-pyrrolo[2,3-b]pyridin-6-yl)-4-fluoro-1-oxoisoindolin-2-yl) piperidine-2,6-dione] | 1 to 10 nM | > 80% | < 1 nM | > 80% | > 10000 nM | < 20% |  |  |  |  |
| O=C1CCC(N2Cc3c(ccc(-c4cc(CN5CCC6(CC5)COC6)c5ccn(C6CS(=O)(=O)C6)c5n4)c3F)C2=O)C(=O)N1 (stereo not drawn) [Example 272, 3-(5-(4-((2-oxa-7-azaspiro[3.5]nonan-7-yl)methyl)-1-(1,1-dioxidothietan-3-yl)-1H-pyrrolo[2,3-b]pyridin-6-yl)-4-fluoro-1-oxoisoindolin-2-yl) piperidine-2,6-dione] | 1 to 10 nM | > 80% | 1 to 10 nM | > 80% | 10 to 100 nM | 40 to 60% |  |  |  |  |
| O=C1CCC(N2Cc3cc(-c4cc(CN5CCCC5)c5ccn(C6CC(F)(F)C6)c5n4)ccc3C2=O)C(=O)N1 (stereo not drawn) [Example 274, 3-(5-(1-(3,3-difluorocyclobutyl)-4-(pyrrolidin-1-ylmethyl)-1H-pyrrolo[2,3-b]pyridin-6-yl)-1-oxoisoindolin-2-yl) piperidine-2,6-dione] | 1 to 10 nM | 60 to 80% | < 1 nM | > 80% | 1000 to 10000 nM | 20 to 40% |  |  |  |  |
| Cc1cc2c(CN3CCCC3)cc(-c3ccc4c(c3)CN(C3CCC(=O)NC3=O)C4=O)nc2n1C1COC1 (stereo not drawn) [Example 275, 3-(5-(2-methyl-1-(oxetan-3-yl)-4-(pyrrolidin-1-ylmethyl)-1H-pyrrolo[2,3-b]pyridin-6-yl)-1-oxoisoindolin-2-yl) piperidine-2,6-dione] | 10 to 100 nM | 60 to 80% | 1 to 10 nM | 60 to 80% | > 10000 nM | < 20% |  |  |  |  |
| CC1c2cc(-c3cc(CN4CCCC4)c4ccn(C5COC5)c4n3)ccc2C(=O)N1C1CCC(=O)NC1=O (stereo not drawn) [Example 276, 3-(3-methyl-5-(1-(oxetan-3-yl)-4-(pyrrolidin-1-ylmethyl)-1H-pyrrolo[2,3-b]pyridin-6-yl)-1-oxoisoindolin-2-yl) piperidine-2,6-dione] | 1 to 10 nM | > 80% | 1 to 10 nM | > 80% | > 10000 nM | < 20% |  |  |  |  |
